Data: patent US7435801B2, “Antibodies and other ligands directed against KIR2DL4 receptor for production of interferon gamma” (The United States of America, as represented by the …, priority 2000, dated 2008)

What was measured:
[1] = tested on: IL-2-mediated induction of IFN-gamma production; experiment: MAPK inhibitors on rIL-2-induced IFN-gamma release by resting NK cells; format: cell-based, human; conditions: rIL-2 5 U/ml, 20 h
[2] = tested on: 2DL4-induced production of IFN-gamma; experiment: MAPK inhibitors on anti-2DL4 mAb-induced IFN-gamma secretion by resting NK cells; format: cell-based, human

Structure (SMILES) | effect on IL-2-mediated induction of IFN-gamma production ([1]; concentration not given) | inhibition of 2DL4-induced IFN-gamma production ([2]; 1 μM inhibitor) | inhibition of IL-2-mediated induction of IFN-gamma production ([1]; 50 μM inhibitor) | inhibition of 2DL4-induced IFN-gamma production ([2]; concentration not given)
C[S+]([O-])c1ccc(-c2nc(-c3ccncc3)c(-c3ccc(F)cc3)[nH]2)cc1 (stereo not shown) [SB203580] | unaffected | Complete inhibition | – | –
COc1cccc(-c2cc(=O)c3ccccc3o2)c1N [PD98059] | – | – | severely inhibited | only a partial inhibitory effect
